US11883423B2, “Nucleobase analogue derivatives and their applications” (BOARD OF REGENTS, THE UNIVERSITY OF TEXAS SYSTEM, priority 2014, dated 2024)

Tests used:
[1] = system: Panc-1-Luc tumors; assay: Antitumor activity against orthotopic Panc-1-Luc tumors in nude mice, with tumor histology; assay type: in vivo
Text: Nude mice with intrapancreatically injected Panc-1-Luc human pancreatic cancer cells were used as a mouse model of pancreatic cancer. The National Institutes of Health guidelines for animal use and care were followed Animal protocols were approved by the Institutional Animal Care and Use Committee at the University of Texas at Austin. Panc-1-Luc cells (Muniz VP et al. Mol Cancer Res. 2011, 9(7), 867-877) were implanted orthotopically by injecting 1×10^6 cells into (the tail of) the pancreas.
Panc-1-Luc cell suspension was prepared at a concentration of 2×10^7 per ml in a 1:1 (v/v) mixture of DMEM and Matrigel. Tumor cells were then injected into the pancreas of male athymic nude mice (6-8 weeks, Charles River Laboratories, Wilmington, Mass.) following a surgical procedure (Raut CP et al. Cancer Biol Ther. 2004, 3(12), 1217-1224; Bruns CJ et al. Neoplasia. 1999, 1(1), 50-62). Briefly, after mice were anesthetized using isoflurane, the skin and peritoneum were cut open about 1 cm in length using sterile surgical scalpels. The pancreas was pulled out, and 50 μL of the cell suspension were injected slowly until a small bleb was formed. After the needle was withdrawn, a small cotton plug was applied for 10 s. The pancreas was returned back, the peritoneum was sutured with Monocryl™ bioresorbable sutures (Ethicon, Somerville, N.J.), and the skin was then closed using surgical clips. Mice were s.c. injected with buprenorphine (0.1 mg/kg) as a pain killer and were left to heal for one week. Tumor progress was monitored using an IVIS™ Spectrum imaging system (Caliper, Hopkinton, MA). For IVIS imaging, each mouse was i.p. injected with a luciferin solution (15 mg/ml) at a dose of 0.15 mg/g body weight in sterile DPBS, anesthetized with isoflurane, and imaged 10 min after luciferin injection. Four weeks after tumor implantation, mice with tumors were randomized into 3 groups (n=5-7) and intraperitoneally injected (i.p) with Gem-DHA (50 mg/kg, ˜0.087 mmole/kg), gemcitabine HCl (26.1 mg/kg, ˜0.087 mmole/kg), or left untreated. Gem-DHA was in a Tween 80/ethanol/water solution with 5% (w/v) of mannitol, and gemcitabine HCl was in sterile mannitol solution (5%, w/v). Treatments were repeated twice a week for a total 7 doses. Thirty days after the first treatment, mice were sacrificed and tumors were dissected from the pancreas, weighed, and fixed in formalin. The doses were based on the average weight of mice in the same group on the day of injection, and were adjusted only if the weight of an individual mouse was above or below 10% of the average weight.
Tumor tissues were sectioned and stained in the Histology and Tissue Analysis Core at Dell Pediatric Research Institute at the University of Texas at Austin or in the Department of
Molecular Carcinogenesis at the University of Texas M.D. Anderson Cancer Center at Science Park (Smithville, Texas) with hematoxylin & eosin (H&E), antibodies against cleaved lamin-A (apoptosis marker), CD-31 (angiogenesis marker), or Ki-67 (proliferation marker). Slides were then scanned, and images were taken using the ScanScope XT (Aperio Technologies, Vista, CA). […] In addition, several areas of necrosis can also be seen in the centers of the tumors. […] Several pyknotic cells with condensed chromatin can also be seen in tumors in mice that were treated with Gem-DHA.

[2] = system: NCI-60 human tumor cell lines; assay: NCI-60 DTP Human Tumor Cell Line Screen, single dose; assay type: cell-based
Experimental: The cytotoxicity of Gem-DHA was also tested using the NCI-60 DTP Human Tumor Cell Line Screen service.

[3] = system: BxPC-3 cells; assay: Anti-proliferative activity, MTT assay, BxPC-3 cells; assay type: cell-based, human; conditions: Bx-PC3 cells
Experimental: The anti-proliferative activity of Gem-DHA was evaluated in Panc-02, TC-1, Panc-1-Luc, and BxPC-3 cell lines. For Panc-02 and TC-1 cells, cells (1,500/well for Panc-02 and 3,000/well for TC-1) were seeded in 96-well plates and incubated at 37° C. and 5% CO2 overnight. The cells were then treated with various concentrations of Gem-DHA or other compounds for 24 h. For BxPC-3 and Panc-1-Luc cells, 3,000 and 1,000 cells/well were used, respectively, and cells were co-incubated with the Gem-DHA for 72 h. Cell viability was determined using an MTT assay as previously described (Naguib YW et al. Mol Pharm. 2014, 11(4), 1239-1249). Gemcitabine HCl was dissolved in cell culture medium, whereas Gem-DHA and DHA were dissolved in dimethylsulfoxide (DMSO). The values of IC50 were calculated using GraphPad Prism (GraphPad software, Inc., La Jolla, CA).

[4] = system: Panc-02 cells; assay: Apoptosis analysis, Annexin V staining and flow cytometry; assay type: cell-based, mouse; conditions: 48 h
Experimental: Apoptosis analysis was carried out as previously reported (Zhu S et al. Biomaterials. 2013, 34(9), 2327-2339). Briefly, 100,000 Panc-02 cells were incubated in 24-well plates for 24 h at 37° C. and 5% CO2 and then co-incubated with various concentrations of Gem-DHA for 48 h. The cells were then harvested and stained with 0.1 ml of Guava Nexin reagent (Millipore Corporation, Billerica, Mass.) for 20 min at room temperature, protected from light. The stained cells were analyzed using a Millipore Guava easyCyte 8HT Flow Cytometry System. Control cells were left untreated.

[5] = system: Panc-02 tumors; assay: Antitumor activity against s.c. Panc-02 tumors in C57BL/6 mice; assay type: in vivo
Experimental: Therefore, the in vivo anti-tumor activity of Gem-DHA was also evaluated and compared to that of DHA alone in male C57BL/6 mice (6-8 weeks, Charles River) with subcutaneously (s.c.)
implanted Panc-02 tumors. Briefly, 1×10^6 cells were s.c. injected in the right flank of mice. Sixteen days later, mice were randomized into groups (n=12) and i.p. injected with Gem-DHA (˜55 mg/kg, […]) or DHA (˜33 mg/kg, ˜0.1 mmole/kg). Mice in the control group were i.p. injected with sterile 5% mannitol (w/v). Gem-DHA and DHA was dissolved in a Tween 80/ethanol/water solution with 5% (w/v) of mannitol. The doses were based on the average weight of mice in the same group on the first day of injection. The treatment was repeated twice a week for up to 6 doses. Tumor growth was monitored using a digital caliper, and tumor volume was calculated based on the longest diameter (L1) and the shortest diameter (L2) of each tumor using the equation of V=½×(L1×L2×L2).

[6] = Solubility in ethanol or Tween 80; assay type: physicochemical

With `CC/C=C\C/C=C\C/C=C\C/C=C\C/C=C\C/C=C\CCC(=O)Nc1ccn(C2OC(CO)C(O)C2(F)F)c(=O)n1` (centres unmarked) [Gem-DHA, 4-(N)-Docosahexaenoyl Difluorodeoxycytidine] the “H&E histology of tumor tissue” value ([1]; compared with tumors of untreated mice) was “less densely packed cancer cells”, the “Inhibition of growth of Panc-1-Luc tumors” value ([1]; i.p., ~0.087 mmole/kg (Gem-DHA 50 mg/kg, gemcitabine HCl 26.1 mg/kg), twice a week, 7 doses) was “more effective than the molar equivalent dose of gemcitabine HCl” and the “Percent of Ki-67 positive cells in tumors” value ([1]; versus mice treated with gemcitabine HCl) was “significantly lower percent of Ki-67 positive cells”. For the same molecule, the “Cleaved lamin-A positive staining in tumors” value ([1]; versus untreated mice) was “significantly higher percent of positive staining”, the “Micro-vessel density (MVD) in tumors, anti-CD-31 staining” value ([1]; versus untreated mice) was “significantly lower than in mice that were not treated” and the “Growth inhibition in NCI-60 screen” value [2] was “inhibited the growth of various types of human tumor cells”. The “Fold by which IC50 is smaller than that of gemcitabine HCl” value [3] was 1.8×10^5 fold, the “Pro-apoptotic activity, Annexin V staining” value [4] was “concentration-dependent apoptosis” and the “Tolerability (body weights)” value ([5]; Panc-02 tumor-bearing mice, dosing regimen tested) was “well tolerated”. For the same molecule, the “Inhibition of Panc-02 tumor growth” value ([5]; i.p., ~0.1 mmole/kg, twice a week, up to 6 doses) was “significantly inhibited the tumor growth” and the “Solubility in ethanol or Tween 80” value [6] was “freely soluble”.
